The structures appear in SMILES notation.

One may read the IC50 as the midpoint of a concentration-inhibition curve.

The target of this assay is Beta-lactamase (Escherichia coli K-12, UniProt P00811). Put plainly: Inhibition of Beta-Lactamase Enzymes: A buffer consisting of 0.1 M sodium phosphate (pH 7.0), 10 mM NaHCO3, and 0.005% Triton X-100 was used for all enzymes. The chromogenic substrate nitrocefin (SynGene, Bangalore, India) was used at 100 μM. Enzyme activity was monitored by the 490 nm absorbance increase upon nitrocefin hydrolysis. Assays were performed in clear polystyrene 384-well plates (Greiner Bio-One, Monroe, N.C.). Absorbance was measured for 1 hour at 30-s intervals using a Spectramax absorbance plate reader (Molecular Devices, Sunnyvale, Calif.). Measurement of beta-lactamase inhibition by INHIBITOR employed serial 3-fold dilutions of the inhibitor in assay buffer, ranging from 100 μM to 62.7 pM. A background absorbance progress curve for a control lacking enzyme and inhibitor was subtracted from each progress curve. Format: single protein.
Sequence of Beta-lactamase (P00811 whole entry): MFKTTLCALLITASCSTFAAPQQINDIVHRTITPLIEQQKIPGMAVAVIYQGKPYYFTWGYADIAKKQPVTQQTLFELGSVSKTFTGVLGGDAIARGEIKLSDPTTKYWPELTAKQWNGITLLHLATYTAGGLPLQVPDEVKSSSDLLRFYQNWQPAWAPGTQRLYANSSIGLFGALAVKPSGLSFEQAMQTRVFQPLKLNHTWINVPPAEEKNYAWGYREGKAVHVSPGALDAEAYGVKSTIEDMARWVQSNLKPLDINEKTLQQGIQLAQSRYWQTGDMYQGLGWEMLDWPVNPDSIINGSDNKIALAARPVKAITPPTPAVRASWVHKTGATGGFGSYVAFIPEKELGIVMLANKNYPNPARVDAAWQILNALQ
`NC(=O)[C@@H]1C(C2CC2)=C[C@@H]2CN1C(=O)N2O[C@H](F)C(=O)O` had a half-inhibitory concentration (IC50) of 22 nM.
For `CC1=C[C@@H]2CN(C(=O)N2O[C@@H](F)C(=O)O)[C@@H]1C(=O)NCCC(N)=O`, 4.4 nM corresponded to half-maximal inhibition (IC50).
Consider `CC(=O)NNC(=O)[C@@H]1C(C)=C[C@@H]2CN1C(=O)N2OC(F)C(=O)O` (some centres not stated), for which inhibition was half-maximal at 8.3 nM (IC50).
To `CC1=C[C@@H]2CN(C(=O)N2O[C@@H](F)C(=O)O)[C@@H]1C(=O)NCCCS(N)(=O)=O` belongs 22 nM; to `CC1=C[C@@H]2CN(C(=O)N2O[C@@H](F)C(=O)O)[C@@H]1C(=O)NCCS(N)(=O)=O`, 4.1 nM; to `CC1=C[C@@H]2CN(C(=O)N2O[C@@H](F)C(=O)O)[C@@H]1C(=O)NCO`, 17 nM.
The compound `CC1=C[C@@H](C#N)N2C[C@@H]1N(O[C@H](F)C(=O)O)C2=O` registered a 50% inhibitory concentration (IC50) of 590 nM.
To `CC1=C[C@@H]2CN(C(=O)N2O[C@@H](F)C(=O)O)[C@@H]1C(=O)NOC[C@@H]1CCC(=O)N1` belongs 53 nM; to `O=C(O)C(F)ON1C(=O)N2C[C@H]1CC[C@H]2C(=O)NC1CCNCC1` (some centres not stated), 1600 nM.
Under `CC1=C[C@@H]2CN(C(=O)N2OC(F)C(=O)O)[C@@H]1c1nnc(C(N)=O)o1` (some centres not stated) stands 180 nM.
In turn, `CC1=C[C@@H](C(N)=O)N2C[C@@H]1N(OCC(=O)O)C2=O` yielded a half-inhibitory concentration (IC50) of 4600 nM.
To `CC1=C[C@@H]2CN(C(=O)N2O[C@@H](F)C(=O)O)[C@@H]1C(=O)NCCNS(N)(=O)=O` belongs 14 nM.
For the compound `CC1=C[C@@H](C(N)=O)N2C[C@@H]1N(O[C@H](F)C(=O)O)C2=O`, the IC50 came to 160 nM.
Take `NC(=O)[C@@H]1C(C2CC2)=C[C@@H]2CN1C(=O)N2O[C@@H](F)C(=O)O`: the IC50 worked out at 95 nM.
`CC1=C[C@@H]2CN(C(=O)N2O[C@@H](F)C(=O)O)[C@@H]1C(=O)NOCCS(N)(=O)=O` yielded an IC50 of 140 nM.
`CC1=C[C@@H]2CN(C(=O)N2OC(F)C(=O)O)[C@@H]1C(=O)NCc1cnccn1` (some centres not stated): it took 1.8 nM to reach half-maximal inhibition (IC50).
Under `CC1=C[C@@H]2CN(C(=O)N2O[C@H](F)C(=O)O)[C@@H]1C(N)=O` stands 11 nM; under `CC1=C[C@@H]2CN(C(=O)N2O[C@@H](F)C(=O)O)[C@@H]1C(=O)NCC[C@@H]1CCC(=O)N1`, 10 nM.
Under `CC1=C[C@@H](C(N)=O)N2C[C@@H]1N(O[C@@H](F)C(=O)O)C2=O` stands 300 nM.
To `CC1=C[C@@H]2CN(C(=O)N2O[C@@H](F)C(=O)O)[C@@H]1C(=O)NCCNS(C)(=O)=O` belongs 7.3 nM; to `CC1=C[C@@H]2CN(C(=O)N2O[C@@H](F)C(=O)O)[C@@H]1C(=O)NOC[C@@H]1CC(F)(F)CN1`, 40 nM; to `CC(=O)NCNC(=O)[C@@H]1C(C)=C[C@@H]2CN1C(=O)N2O[C@@H](F)C(=O)O`, 3.1 nM.
The compound `CC1=C[C@@H]2CN(C(=O)N2O[C@@H](F)C(=O)O)[C@@H]1C(=O)NCc1cnccn1` showed a 50% inhibitory concentration (IC50) of 2 nM.
Take `CC1=C[C@@H]2CN(C(=O)N2O[C@@H](F)C(=O)O)[C@@H]1C(=O)NOC[C@@H]1CCCN1`: the IC50 amounted to 410 nM.
Under `CC1=C[C@@H]2CN(C(=O)N2O[C@@H](F)C(=O)O)[C@@H]1C(=O)NOCC1CC1` stands 130 nM; under `CC1=C[C@@H]2CN(C(=O)N2O[C@@H](F)C(=O)O)[C@@H]1C(=O)NC1COC1`, 54 nM; under `CC1=C[C@@H]2CN(C(=O)N2O[C@@H](F)C(=O)O)[C@@H]1C(=O)NCc1ncco1`, 9.3 nM.
With `CC1=C[C@@H]2CN(C(=O)N2O[C@@H](F)C(=O)O)[C@@H]1C(=O)NCC#N`, the IC50 came to 14 nM.
To `CC1=C[C@@H](C(N)=O)N2C[C@@H]1N(OC(F)(F)C(=O)O)C2=O` belongs 36 nM; to `CC1=C[C@@H]2CN(C(=O)N2OC(F)(F)C(=O)O)[C@@H]1C(N)=O`, 12 nM; to `CC1=C[C@@H]2CN(C(=O)N2OC(C)(F)C(=O)O)[C@@H]1C(N)=O` (mixture of isomers), 400 nM.
For the compound `NC(=O)[C@@H]1CC[C@@H]2CN1C(=O)N2O[C@H](F)C(=O)O`, the 50% inhibitory concentration (IC50) worked out at 2000 nM.
Under `CC1=C[C@@H]2CN(C(=O)N2OCC(=O)O)[C@@H]1C(N)=O` stands 1200 nM.
Turning to `CC1=C[C@@H]2CN(C(=O)N2OC(F)C(=O)O)[C@@H]1C(N)=O` (mixture of isomers), the IC50 came to 20 nM.
As for `CC1=C[C@@H]2CN(C(=O)N2O[C@@H](F)C(=O)O)[C@@H]1C(N)=O`, the half-inhibitory concentration (IC50) came to 71 nM.
For the compound `CC1=C[C@@H]2CN(C(=O)N2O[C@@H](F)C(=O)O)[C@@H]1C(=O)NCNS(N)(=O)=O`, the midpoint of inhibition, the IC50, lay at 2.1 nM.
`CC1=C[C@@H]2CN(C(=O)N2O[C@@H](F)C(=O)O)[C@@H]1CNC(=O)OC(C)(C)C` came in with an IC50 of 44000 nM.

For the origin of these results see ChEMBL document CHEMBL5728033 (2020).
